Test results published in ChEMBL document CHEMBL1909046, “DrugMatrix in vitro pharmacology data”.

How the values were obtained:
[1] = molecular target: Cytochrome P450 2D6 (Homo sapiens, UniProt P10635); conditions: bti-tn-5b1-4; note: in other assays of this panel Not Active means under 50% inhibition at 10 µM
[2] = DRUGMATRIX: Phorbol Ester radioligand binding (ligand: [3H] PDBu); assay type: cell membranes, Mus musculus, ICR, Brain, Membrane; conditions: Not Active = under 50% inhibition at 10 µM
[3] = molecular target: 5-hydroxytryptamine receptor 1B (Rattus norvegicus, UniProt P28564); assay type: cell membranes, Wistar, Cerebral cortex, Membrane; note: in other assays of this panel Not Active means under 50% inhibition at 10 µM
[4] = DRUGMATRIX: Glutamate, NMDA, Agonism radioligand binding (ligand: [3H] CGP-39653); assay type: cell membranes, Rattus norvegicus, Wistar, Cerebral cortex, Membrane; conditions: Not Active = under 50% inhibition at 10 µM
[5] = molecular target: T1, Nitric oxide synthase, inducible (Mus musculus, UniProt P29477); design: species or system Escherichia coli;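 note: inhibition of iNOS enzyme activity measured with L-arginine as substrate; in other assays of this panel Not Active means under 50% inhibition at 10 µM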
T1 sequence (P29477 whole entry): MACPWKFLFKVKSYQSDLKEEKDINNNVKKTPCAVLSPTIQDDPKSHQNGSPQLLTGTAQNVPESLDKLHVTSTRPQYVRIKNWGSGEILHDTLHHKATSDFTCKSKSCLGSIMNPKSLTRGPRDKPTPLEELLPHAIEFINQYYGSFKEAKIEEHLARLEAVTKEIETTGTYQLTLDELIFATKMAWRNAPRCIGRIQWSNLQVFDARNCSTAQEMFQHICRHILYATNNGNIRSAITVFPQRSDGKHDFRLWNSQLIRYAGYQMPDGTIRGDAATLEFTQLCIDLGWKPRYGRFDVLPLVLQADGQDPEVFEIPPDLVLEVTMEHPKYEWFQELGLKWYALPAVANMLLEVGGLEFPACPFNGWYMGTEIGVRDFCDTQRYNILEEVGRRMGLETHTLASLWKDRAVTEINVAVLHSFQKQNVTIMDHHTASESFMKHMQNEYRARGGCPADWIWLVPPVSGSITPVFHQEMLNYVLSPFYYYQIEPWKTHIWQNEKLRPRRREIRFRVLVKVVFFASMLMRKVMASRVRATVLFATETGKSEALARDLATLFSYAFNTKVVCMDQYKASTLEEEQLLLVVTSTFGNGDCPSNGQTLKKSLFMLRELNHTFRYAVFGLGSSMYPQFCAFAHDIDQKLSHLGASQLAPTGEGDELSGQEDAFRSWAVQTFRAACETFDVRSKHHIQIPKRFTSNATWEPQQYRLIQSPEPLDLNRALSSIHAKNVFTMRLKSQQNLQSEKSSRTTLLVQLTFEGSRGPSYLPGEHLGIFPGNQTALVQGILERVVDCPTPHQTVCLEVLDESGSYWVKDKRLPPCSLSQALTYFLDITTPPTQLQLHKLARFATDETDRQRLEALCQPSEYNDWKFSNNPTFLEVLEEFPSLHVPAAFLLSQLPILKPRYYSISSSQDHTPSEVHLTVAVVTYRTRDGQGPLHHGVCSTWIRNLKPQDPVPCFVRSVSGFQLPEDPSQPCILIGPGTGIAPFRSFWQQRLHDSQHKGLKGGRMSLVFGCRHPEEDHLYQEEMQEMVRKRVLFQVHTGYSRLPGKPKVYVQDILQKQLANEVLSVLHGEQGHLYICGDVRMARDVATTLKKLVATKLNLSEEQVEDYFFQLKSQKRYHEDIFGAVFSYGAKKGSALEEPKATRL

[6] = molecular target: T2, B2 bradykinin receptor (Homo sapiens, UniProt P30411); assay type: cell membranes, Membrane; conditions: chem-1; note: in other assays of this panel Not Active means under 50% inhibition at 10 µM
T2 sequence (P30411 whole entry): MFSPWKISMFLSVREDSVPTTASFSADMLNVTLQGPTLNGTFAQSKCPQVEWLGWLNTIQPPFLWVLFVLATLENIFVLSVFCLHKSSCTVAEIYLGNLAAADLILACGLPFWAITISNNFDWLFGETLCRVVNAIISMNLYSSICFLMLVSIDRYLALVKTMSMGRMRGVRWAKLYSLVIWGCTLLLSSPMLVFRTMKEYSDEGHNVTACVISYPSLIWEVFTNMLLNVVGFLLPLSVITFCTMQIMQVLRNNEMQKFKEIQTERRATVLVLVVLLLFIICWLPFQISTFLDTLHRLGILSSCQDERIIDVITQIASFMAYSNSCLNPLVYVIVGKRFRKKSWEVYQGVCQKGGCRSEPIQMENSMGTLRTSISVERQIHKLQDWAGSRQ

[7] = molecular target: T3, Substance-K receptor (Homo sapiens, UniProt P21452); assay type: cell membranes, CHO, Membrane; conditions: cho; note: in other assays of this panel Not Active means under 50% inhibition at 10 µM
T3 sequence (P21452 whole entry): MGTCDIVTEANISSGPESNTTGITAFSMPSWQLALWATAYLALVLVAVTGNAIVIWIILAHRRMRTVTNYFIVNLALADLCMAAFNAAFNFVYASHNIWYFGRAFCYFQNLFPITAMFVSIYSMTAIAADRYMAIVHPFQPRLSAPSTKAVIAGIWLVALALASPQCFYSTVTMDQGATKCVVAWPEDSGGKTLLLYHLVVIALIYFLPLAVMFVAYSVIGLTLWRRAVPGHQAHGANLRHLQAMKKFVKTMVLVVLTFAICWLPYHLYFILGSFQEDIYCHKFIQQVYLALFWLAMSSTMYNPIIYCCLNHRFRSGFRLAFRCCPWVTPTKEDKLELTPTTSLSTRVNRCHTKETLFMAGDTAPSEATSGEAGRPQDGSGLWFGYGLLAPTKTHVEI

Chain of Cytochrome P450 2D6 (P10635 whole entry): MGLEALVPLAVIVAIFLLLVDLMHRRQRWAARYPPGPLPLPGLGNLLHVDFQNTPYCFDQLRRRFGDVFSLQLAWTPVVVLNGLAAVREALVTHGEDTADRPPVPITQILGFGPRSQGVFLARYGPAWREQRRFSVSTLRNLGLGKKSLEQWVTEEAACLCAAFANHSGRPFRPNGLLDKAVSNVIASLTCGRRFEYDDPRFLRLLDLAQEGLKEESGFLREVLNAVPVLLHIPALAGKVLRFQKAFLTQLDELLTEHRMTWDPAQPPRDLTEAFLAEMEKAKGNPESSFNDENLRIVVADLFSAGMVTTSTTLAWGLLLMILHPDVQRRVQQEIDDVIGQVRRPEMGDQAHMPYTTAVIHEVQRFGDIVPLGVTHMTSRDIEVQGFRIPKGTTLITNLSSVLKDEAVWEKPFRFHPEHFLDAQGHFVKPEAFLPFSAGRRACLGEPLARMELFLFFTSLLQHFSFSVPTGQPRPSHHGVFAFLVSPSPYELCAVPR
Chain of 5-hydroxytryptamine receptor 1B (P28564 whole entry): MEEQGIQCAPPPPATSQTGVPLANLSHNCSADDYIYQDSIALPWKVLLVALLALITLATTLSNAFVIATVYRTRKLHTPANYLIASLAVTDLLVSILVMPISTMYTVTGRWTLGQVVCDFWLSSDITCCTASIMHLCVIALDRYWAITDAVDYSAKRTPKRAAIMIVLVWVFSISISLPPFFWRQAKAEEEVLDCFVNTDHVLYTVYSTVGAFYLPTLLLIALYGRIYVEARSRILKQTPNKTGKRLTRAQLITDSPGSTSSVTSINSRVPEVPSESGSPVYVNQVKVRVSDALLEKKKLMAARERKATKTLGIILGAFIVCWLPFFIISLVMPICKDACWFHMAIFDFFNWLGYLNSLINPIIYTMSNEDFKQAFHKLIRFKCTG

| SMILES | IC50 [1] | Ki [1] | IC50 [2] | Ki [2] | IC50 [3] | IC50 [4] | Ki [4] | IC50 [5] | IC50 [6] | IC50 [7] | IC50 ([3]; read-out: IC50) [nM] | Ki ([3]; read-out: Ki) [nM] |
| --- | --- | --- | --- | --- | --- | --- | --- | --- | --- | --- | --- | --- |
| O=C(O)c1cc(-c2ccc(F)cc2F)ccc1O [DIFLUNISAL] | Not Active | Not Active | Not Active | Not Active | Not Active | Not Active | Not Active | Not Active | Not Active | Not Active | – | – |
| CCn1cc(C(=O)O)c(=O)c2cc(F)c(N3CCNC(C)C3)c(F)c21 (configuration not stated) [LOMEFLOXACIN] | Not Active | Not Active | Not Active | Not Active | Not Active | Not Active | Not Active | Not Active | Not Active | Not Active | – | – |
| CN(C)C(=O)Oc1cccc([N+](C)(C)C)c1.[Br-] [NEOSTIGMINE BROMIDE] | Not Active | Not Active | Not Active | Not Active | Not Active | Not Active | Not Active | Not Active | Not Active | Not Active | – | – |
| CN1CCCC(CN2c3ccccc3Sc3ccccc32)C1 (configuration not stated) [MEPAZINE] | Not Active | Not Active | Not Active | Not Active | Not Active | – | – | Not Active | Not Active | Not Active | – | – |
| ClC(Cl)(Cl)Cl [CARBON TETRACHLORIDE] | Not Active | Not Active | Not Active | Not Active | Not Active | Not Active | Not Active | Not Active | Not Active | Not Active | – | – |
| CCN(CC)CCCC(C)Nc1c2ccc(Cl)cc2nc2ccc(OC)cc12 (configuration not stated) [QUINACRINE] | Not Active | Not Active | Not Active | Not Active | Not Active | Not Active | Not Active | Not Active | Not Active | Not Active | – | – |
| CC[C@H]1[C@@H]2C[C@H]3[C@@H]4N(C)c5ccccc5[C@]45C[C@@H]([C@@H]2[C@H]5O)N3[C@@H]1O [AJMALINE] | – | – | Not Active | Not Active | Not Active | Not Active | Not Active | Not Active | Not Active | Not Active | – | – |
| C[C@H]1[C@H](NC(=O)/C(=N\OC(C)(C)C(=O)O)c2csc(N)n2)C(=O)N1S(=O)(=O)O [AZTREONAM] | Not Active | Not Active | Not Active | Not Active | Not Active | Not Active | Not Active | Not Active | Not Active | Not Active | – | – |
| CO/N=C(\C(=O)N[C@@H]1C(=O)N2C(C(=O)O)=C(COC(C)=O)CS[C@H]12)c1csc(N)n1 [CEFOTAXIME] | Not Active | Not Active | Not Active | Not Active | Not Active | Not Active | Not Active | Not Active | Not Active | Not Active | – | – |
| CC(C)c1c(C(=O)Nc2ccccc2)c(-c2ccccc2)c(-c2ccc(F)cc2)n1CC[C@@H](O)C[C@@H](O)CC(=O)O [ATORVASTATIN] | – | – | Not Active | Not Active | Not Active | Not Active | Not Active | Not Active | Not Active | Not Active | – | – |
| CC(C)C[C@H]1C(=O)N2CCC[C@H]2[C@]2(O)O[C@](NC(=O)[C@@H]3C=C4c5cccc6[nH]cc(c56)C[C@H]4N(C)C3)(C(C)C)C(=O)N12 [ERGOCRYPTINE] | Not Active | Not Active | Not Active | Not Active | – | Not Active | Not Active | Not Active | Not Active | Not Active | 8.2 | 5.02 |
| N[C@@H](Cn1ccc(=O)c(O)c1)C(=O)O [L-MIMOSINE] | – | – | Not Active | Not Active | Not Active | Not Active | Not Active | Not Active | Not Active | Not Active | – | – |
| CC(=O)OCC(=O)[C@@]12OC(C)(C)O[C@@H]1C[C@H]1[C@@H]3C[C@H](F)C4=CC(=O)C=C[C@]4(C)[C@@]3(F)[C@@H](O)C[C@@]12C [FLUOCINONIDE] | – | – | Not Active | Not Active | Not Active | Not Active | Not Active | Not Active | Not Active | Not Active | – | – |
| CC[C@]1(O)C[C@@H]2CN(CCc3c([nH]c4ccccc34)[C@@](C(=O)OC)(c3cc4c(cc3OC)N(C)[C@H]3[C@@](O)(C(N)=O)[C@H](O)[C@]5(CC)C=CCN6CC[C@]43[C@@H]65)C2)C1 [VINDESINE] | – | – | Not Active | Not Active | Not Active | Not Active | Not Active | Not Active | Not Active | Not Active | – | – |
| CCOc1nc2cccc(C(=O)O)c2n1Cc1ccc(-c2ccccc2-c2nnn[nH]2)cc1 | – | – | Not Active | Not Active | Not Active | Not Active | Not Active | Not Active | Not Active | Not Active | – | – |
| CC(C)(C(=O)O)c1ccc(C(O)CCCN2CCC(C(O)(c3ccccc3)c3ccccc3)CC2)cc1 (configuration not stated) [FEXOFENADINE] | – | – | Not Active | Not Active | Not Active | Not Active | Not Active | Not Active | Not Active | Not Active | – | – |
| NNCCc1ccccc1 [PHENELZINE] | – | – | Not Active | Not Active | Not Active | Not Active | Not Active | Not Active | Not Active | Not Active | – | – |
| C[C@@H]1C/C=C/C=C/C=C/C=C/[C@H](O[C@@H]2O[C@H](C)[C@@H](O)[C@H](N)[C@@H]2O)C[C@@H]2O[C@](O)(C[C@@H](O)C[C@H]3O[C@@H]3/C=C/C(=O)O1)C[C@H](O)[C@H]2C(=O)O [NATAMYCIN] | – | – | Not Active | Not Active | Not Active | Not Active | Not Active | Not Active | Not Active | Not Active | – | – |
| CN1CCN(C(c2ccccc2)c2ccccc2)CC1 [CYCLIZINE] | – | – | Not Active | Not Active | Not Active | Not Active | Not Active | Not Active | Not Active | Not Active | – | – |
| NC12CC3CC(CC(C3)C1)C2 [AMANTADINE] | – | – | Not Active | Not Active | Not Active | Not Active | Not Active | Not Active | Not Active | Not Active | – | – |
